Assay results from patent US20250122147A1, “ARYL CYCLOHEXANEDIONE DERIVATIVE OR SALT THEREOF, PEST CONTROL AGENT CONTAINING SAME, AND METHOD FOR USE THEREOF” (ADEKA Corporation, priority 2021, published 2025).

Assays:
Plutella xylostella = assay: Insecticidal test against Plutella xylostella; conditions: 500 ppm drug solution; Chinese cabbage seedlings with eggs immersed about 30 sec; six days after immersion; 25° C.
Text: Six days after the immersion in the drug solution, the number of surviving insects was examined. […] In triplicate using 10 per plot.

Laodelphax striatellus = assay: Insecticidal test against Laodelphax striatellus; conditions: 500 ppm drug solution; rice seedlings immersed 30 seconds; three-instar insects; eight days after inoculation
[1] = test system: Frankliniella occidentalis; assay: Insecticidal test against Frankliniella occidentalis; conditions: 500 ppm drug solution sprayed on Phaseolus vulgaris leaf pieces with hatched larvae; four days after treatment
Text: [formula] • assessment criteria.
Female adult Frankliniella occidentalis were inoculated onto Phaseolus vulgaris leaf pieces, and after allowing them to lay eggs for one day, the female adults were removed. […] Four days after the treatment, the number of surviving larvae of this species was examined. […] In duplicate.

Dirofilaria immitis = assay: Influence evaluation test on the growth of Dirofilaria immitis; conditions: 168 h, read-out: development inhibition rate from the L3 stage larva to the L4-stage larva

| Compound | corrected mortality, rating of assessment (Plutella xylostella) | corrected mortality, rating of assessment (Laodelphax striatellus) | corrected mortality, rating of assessment [1] | inhibition at 10 µM (Dirofilaria immitis) [%] |
| --- | --- | --- | --- | --- |
| O=C1CC(c2ccc(C(F)(F)F)cc2)CC(O)=C1C(=O)Nc1ccc(OC(F)(F)F)cc1 (stereo not shown) [1-9] | D or higher | D or higher | D or higher |  |
| O=C1CC(c2ccc(C(F)(F)F)cc2)CC(O)=C1C(=O)Nc1nccs1 (stereo not shown) [1-47, 5-hydroxy-3-oxo-N-(thiazol-2-yl)-4′-(trifluoromethyl)-1,2,3,6-tetrahydro-[1,1′-biphenyl]-4-carboxamide] |  |  |  | ≥ 50 |
| O=C1CC(c2ccc(C(F)(F)F)cc2)CC(O)=C1C(=O)Nc1ccc(F)cn1 (stereo not shown) [1-48, N-(5-fluoropyridin-2-yl)-5-hydroxy-3-oxo-4′-(trifluoromethyl)-1,2,3,6-tetrahydro-[1,1′-biphenyl]-4-carboxamide] | D or higher |  |  | ≥ 50 |
| O=C1CC(c2ccc(C(F)(F)F)nc2)CC(O)=C1C(=O)Nc1ccc(F)cc1 (stereo not shown) [1-68] | D or higher | D or higher |  |  |
| CC(C)NC(=S)C1=C(O)CC(c2ccc(C(F)(F)F)cc2)CC1=O (stereo not shown) [1-84] |  | D or higher |  |  |
| CC1(c2ccc(C(F)(F)F)cc2)CC(=O)C(C(=O)Nc2ccc(F)cc2)=C(O)C1 (stereo not shown) [1-139] |  |  | D or higher |  |
| O=C1CC(c2ccc(C(F)(F)F)nc2)CC(O)=C1C(=O)Nc1ccc(F)cn1 (stereo not shown) [1-149] | D or higher | D or higher |  |  |
| O=C1CC(c2ccc(C(F)(F)F)nc2)CC(O)=C1C(=O)Nc1ccc(F)nc1 (stereo not shown) [1-150] |  | D or higher | D or higher |  |
| O=C1CC(c2cncs2)CC(O)=C1C(=O)Nc1ccc(F)cc1 (stereo not shown) [1-152] | D or higher | D or higher |  |  |
| O=C1CC(c2ccc(Br)cn2)CC(O)=C1C(=O)Nc1ccc(F)cc1 (stereo not shown) [1-161] | D or higher | D or higher |  |  |
| C[S+]([O-])c1ccc(C2CC(=O)C(C(=O)Nc3ccc(F)cn3)=C(O)C2)cc1 (stereo not shown) [1-164] | D or higher | D or higher |  |  |
| O=C1CC(c2ccc(C(F)(F)F)cc2)CC(SCc2ccccc2)=C1C(=O)Nc1ccc(F)cc1 (stereo not shown) [1-225] | D or higher | D or higher |  |  |
| CONC1=C(C(=O)Nc2ccc(F)cc2)C(=O)CC(c2ccc(C(F)(F)F)cc2)C1 (stereo not shown) [1-227, N-(4-fluorophenyl)-5-(methoxyamino)-3-oxo-4′-(trifluoromethyl)-1,2,3,6-tetrahydro-[1,1′-biphenyl]-4-carboxamide] |  |  |  | ≥ 50 |
| O=C1CC(c2ccc(C(F)(F)F)nc2)CC(O)=C1C(=S)Nc1ccc(F)cn1 (stereo not shown) [1-231] | D or higher |  |  |  |
| CS(=O)(=O)c1ccc(C2CC(=O)C(C(=O)Nc3ccc(Cl)cc3)=C(O)C2)cc1 (stereo not shown) [1-232] | D or higher |  |  |  |
| C[S+]([O-])c1ccc(C2CC(=O)C(C(=O)Nc3ccc(Cl)cc3)=C(O)C2)cc1 (stereo not shown) [1-233] | D or higher |  |  |  |
| CSc1ccc(C2CC(=O)C(C(=O)Nc3ccc(Cl)cc3)=C(O)C2)cc1 (stereo not shown) [1-234] | D or higher |  |  |  |
| O=C1CC(c2ccc(SC(F)(F)F)cc2)CC(O)=C1C(=O)Nc1ccc(Cl)cc1 (stereo not shown) [1-235] | D or higher |  |  |  |
